Experimental data from patent publication US10028955B2, “FGFR inhibitor for use in the treatment of hypophosphatemic disorders” (Novartis AG, priority 2012, dated 2018).
Entries after “also recorded” stand apart in the source; their conditions may differ.

What was measured:
Format in all cases: in vivo, mouse
[1] = system: Hyp mice; experiment: Long-term (8 weeks, 3 qw) treatment of Hyp mice: body weight, tail length, serum parameters; conditions: 50 mg/kg 3 qw for 56 days
Description: (§1) Serum was separated from whole blood using clot activator centrifugation tubes. 100 μl of serum were used for determination of phosphate and calcium levels using the VetScan diagnostic profiling system. Serum concentrations of 1,25(OH)2D3 were determined using a radio receptor assay kit. FGF23 serum levels were analyzed by an ELISA detecting intact FGF23 (Kainos).
Long-term FGFR inhibition enhances body weight and tail length development and restores mineral ion homeostasis in Hyp mice. A long-term treatment studies was performed to monitor a potential amelioration of the rickets-like bone phenotypes of the Hyp mouse model. Treatments were performed over a course of 8 weeks. Owing to the persistence of elevated calcium and phosphate levels—extending beyond the clearance of BGJ398 from the kidney (FIG. 4)—mice were treated three times weekly (3 qw) with BGJ398 (50 mg/kg body weight) or vehicle for 56 days and analyzed similarly as explained above. […] Total body weight (FIG. 5B) and tail length gain (FIG. 5D) over the course of the treatment are depicted in FIG. 5 as well. Calcium (FIG. 5E) and phosphate (FIG. 5F) levels at the end of the 8 week treatment were determined from serum 24 h after the last administration and are shown in FIG. 5. Data are shown as average with SEM (n≥6). Data were compared by unpaired Student's t test; * p<0.05; ** p<0.01; *** p<0.001; n. s.: not significant.
Wild-type or Hyp mice were treated again with the FGFR inhibitor BGJ398 (50 mg/kg) or vehicle 3 qw for 56 days and FGF23 (FIG. 6A), parathyroid hormone (PTH) (FIG. 6B) and 1,25(OH)2D3 (FIG. 6C) levels were determined from serum at 24 h after the last dosing. PTH values were determined by separating the serum from whole blood using clot activator centrifugation tubes (Sarstedt). 20 μl of serum were used for determination PTH levels using a mouse PTH ELISA (Immutopics). Data were compared by unpaired Student's t test; * p<0.05; ** p<0.01; *** p<0.001; n. s.: not significant.

[2] = system: renal FGF23 target genes Cyp27b1 and Cyp24a1; experiment: Renal FGF23 target gene expression (qPCR) after single oral dose in wild-type and Hyp mice; conditions: both wild-type and Hyp mice, single oral dose 50 mg/kg, 7 h
Source text: (§2) FGFR inhibitor treatment induces 1,25(OH)2D3 biosynthesis and alleviates hypocalcemia and hypophosphatemia in Hyp mice. Wild-type C57BL/6 and Hyp (B6.Cg-PhexHyp/J) mice were obtained from The Jackson Laboratory. Dmp1-null mice were generated by Feng et al. (J. Dent. Res. 2003; 82:776-780.). All mice were kept in cages under standard laboratory conditions. Mice were fed on a standard rodent diet with water ad libitum.
Wild-type or Hyp mice received a single oral dose of the FGFR inhibitor BGJ398 in its free base form (50 mg/kg) or vehicle and were studied 7 h after administration of the compound. BGJ398 or vehicle only (PEG-300/Glucose 5%, 2:1 mix) was administered by oral gavage. Mice were used at 5-7 weeks of age in the case of single dose administrations. […] Concentrations of BGJ398 in kidney at 7 h was also determined. […]
Gene expression was analyzed by quantitative real-time PCR (qPCR). […] Quantitative real-time PCR was performed in an iQ5 Real-Time PCR Detection System using a qPCR core kit for probe assay and an equivalent of 40 or 80 ng RNA of each sample. […]
FGF23 exerts its hypophosphatemic functions in part by transcriptional regulation of the 1,25(OH)2D3-metabolizing enzymes CYP27B1 and CYP24A1 in the kidney. We therefore monitored renal Cyp27b1 and Cyp24a1 expression upon single dose treatment with BGJ398 in Hyp mice and wild-type littermates.

[3] = system: Dmp1-null mice; experiment: Serum calcium and phosphate after single oral dose in Dmp1-null mice; conditions: single oral dose 50 mg/kg, 24 h post-administration
Source text: as §2
For analysis of calcium and phosphate levels mice received a single oral dose of the FGFR inhibitor BGJ398 (50 mg/kg) or vehicle and were studied 24 h post-administration. Phosphate and calcium levels were determined from serum. As for Hyp mice, pharmacological FGFR inhibition led to increased serum calcium and phosphate levels in Dmp1-null mice (FIGS. 2C and D, respectively). Data in FIG. 2 are shown as average with SEM (n≥6). Data were compared by unpaired Student's t test; * p<0.05; ** p<0.01; *** p<0.001; n. s.: not significant.

[4] = system: Hyp mice; experiment: Serum 1,25(OH)2D3, calcium and phosphate after single oral dose in wild-type and Hyp mice
Source text: as §2
Wild-type or Hyp mice received a single oral dose of the FGFR inhibitor BGJ398 in its free base form (50 mg/kg) or vehicle and were studied 7 h after administration of the compound. BGJ398 or vehicle only (PEG-300/Glucose 5%, 2:1 mix) was administered by oral gavage. Mice were used at 5-7 weeks of age in the case of single dose administrations. Mice were anesthetized by isoflurane inhalation and blood was collected from the caval vein. Mice were sacrificed by exsanguination and kidney and tibial and femoral bones were obtained. Concentrations of BGJ398 in kidney at 7 h was also determined.
as §1
At 24 h post-dosing, single dose treatment with BGJ398 induced elevated serum calcium and phosphate levels in both wild-type and Hyp mice, thus alleviating the severe hypocalcemia and hypophosphatemia observed in control Hyp mice. […] Data in FIGS. 1 A and B is shown as relative levels to the wild-type control group (relative expression of 100) and are given as average with standard errors of the mean (SEM) (n≥6).
Similarly to example 1, wild-type or Hyp mice received a single oral dose of the FGFR inhibitor BGJ398 or vehicle and were studied […] after administration of the compound. Calcium (FIG. 4A) and phosphate (FIG. 4B) levels were determined from serum. Data are shown as average with SEM (n≥3). Data were compared by unpaired Student's t test; * p<0.05; ** p<0.01; *** p<0.001; n. s.: not significant. (C) BGJ398 concentrations in kidney at 7 h and 24 h post-administration. Values are given as average with SEM (n≥5).

[5] = system: FGF23; experiment: FGF23 bone mRNA and serum levels after single oral dose in wild-type and Hyp mice; conditions: single oral dose 50 mg/kg, 7 h post-dosing
Description: Kidneys were sampled, total RNA was isolated. For RNA isolation from mouse tibial and femoral bones, epiphyses were cut off and bone marrow was removed by centrifugation at 4° C. Tissue was homogenized using a Precellyis 24 bead homogenizer and RNA was extracted with TRIzol reagent. RNA was purified subsequently by chloroform extraction, isopropanol precipitation and RNeasy Mini kit. For kidney RNA, approximately 60 mg of tissue was homogenized in 1.5 ml RTL buffer (Qiagen) with a rotor-stator homogenizer and RNA was purified with the RNeasy Mini kit. Random hexamer primed cDNA was synthesized with 0.5-2 μg RNA and MultiScribe MuLV reverse transcriptase.
Gene expression was analyzed by quantitative real-time PCR (qPCR). TaqMan Probe-Based Gene Expression assays were used for expression analysis of mouse Cyp27b1 (Mm01165919), Cyp24a1 (Mm00487244) and Gapdh (4352339E). Sequences of primers and FAM/TAMRA-labeled probes (Microsynth) for the detection of mouse Fgf23 were 5′-[…] (forward), 5′-[…] (reverse) and 5′-[…] (probe). Quantitative real-time PCR was performed in an iQ5 Real-Time PCR Detection System using a qPCR core kit for probe assay and an equivalent of 40 or 80 ng RNA of each sample. The data were normalized to Gapdh expression.
as §1
Besides the alleviation of the mineral ion deficiency in the two mouse models for FGF23-related hypophosphatemic rickets, we also noticed a repressive effect of FGFR inhibitor treatment on FGF23 levels in BGJ398-treated Hyp mice. Mice received a single oral dose of the FGFR inhibitor BGJ398 (50 mg/kg) or vehicle and were studied 7 h post-administration. FGF23 bone mRNA (FIG. 3A) and serum (FIG. 3B) levels in wild-type and Hyp mice treated with BGJ398 were determined. […]

[6] = system: Hyp mice; experiment: Long-term (8 weeks, 3 qw) treatment of Hyp mice: bone radiography, micro-CT, histology/histomorphometry; conditions: 50 mg/kg 3 qw for 56 days
Description: Radiographs of femur and tibia were taken ex vivo using a high-resolution radiography system (Faxitron MX-20). μCT measurements were performed ex vivo using a Scanco vivaCT 40 system (voxel size 6 μm; high resolution). For cancellous and cortical bone analyses a fixed threshold of 200 was used to determine the mineralized bone fraction from 50 slices. A Gaussian filter was applied to remove noise (σ=0.7; support=1).
As shown on FIG. 7 long-term FGFR inhibition enhances growth of long bones in Hyp mice. Taken together, these above results illustrate the beneficial effect of pharmacological FGFR inhibition in the context of aberrant FGF23 signaling and indicate a potential alleviation of the bone formation deficiency of Hyp mice. […] On FIG. 7.: Radiographs of femur (FIG. 7A) and tibia (FIG. 7B) from wild-type or Hyp mice treated with the FGFR inhibitor BGJ398 (50 mg/kg) or vehicle 3 qw for 56 days. Quantification of femoral (FIG. 7C) and tibial (FIG. 7D) length. Data are shown as average with SEM (n≥6). Data were compared by unpaired Student's t test; * p<0.05; ** p<0.01; *** p<0.001; n. s.: not significant.
Long-term FGFR inhibition improves cortex integrity in femoral bone of Hyp mice. To determine the effect of FGFR inhibitor treatment on bone structure in more detail, we performed microcomputed tomography (CT) analyses of the femoral cortex (sub growth plate area) from wild-type or Hyp mice treated with the FGFR inhibitor BGJ398 (50 mg/kg) or vehicle 3 qw for 56 days (FIG. 8A). Further relative cortical bone volume was quantified (FIG. 8B) and average cortex thickness determined (FIG. 8C).
Long-term treatment with BGJ398 restores growth plate organization Hyp mice. we also found an ameliorative effect of BGJ398-treatment on growth plate organization in Hyp mice in tibial histological sections (FIG. 9A). […] Mineralized tissue is indicated by white arrows, unmineralized osteoid is visualized by dark grey (indicated by black arrows). Growth plate structure is shown by light grey staining in the central part of the sections (FIG. 9B). Osteoid surface/bone surface and osteoid width (FIG. 9C) determined by histomorphometry in the tibial epiphysis of wild-type or Hyp mice treated with BGJ398 (50 mg/kg) or vehicle 3 qw for 56 days. Data are shown as average with SEM (n≥6). Data were compared by unpaired Student's t test; * p<0.05; ** p<0.01; *** p<0.001. In vehicle-treated Hyp mice the columnar organization and directional growth of chondrocytes was disturbed in contrast to the highly ordered structure in wild-type mice. In addition, mineralization was impaired in control Hyp mice, as indicated by the abundance of unmineralized osteoid.

[7] = Hyp mice, 24 h after last administration
[8] = Hyp mice, 24 h after last dosing
[9] = Hyp mice, single oral dose 50 mg/kg, 24 h post-dosing
[10] = both wild-type and Hyp mice, single oral dose 50 mg/kg, 24 h post-dosing, 50 mg/kg
[11] = wild-type or Hyp mice, single oral dose, 48 h after administration

CCN1CCN(c2ccc(Nc3cc(N(C)C(=O)Nc4c(Cl)c(OC)cc(OC)c4Cl)ncn3)cc2)CC1 [BGJ398, 3-(2,6-Dichloro-3,5-dimethoxy-phenyl)-1-{6-[4-(4-ethyl-piperazin-1-yl)-phenylamino]-pyrimid-4-yl}-1-methyl-urea]
serum calcium levels [1, 7]: complete normalization | serum phosphate levels [1, 7]: complete normalization | FGF23 serum concentrations [1, 8]: further increase | PTH levels (serum) [1, 8]: normalization | tail length development ([1]; Hyp mice, vs control Hyp): much stronger increase in tail length compared to control Hyp mice | body weight development ([1]; Hyp mice, vs vehicle Hyp): stronger increase in body weight compared to the vehicle control group | tail length gain ([1]; Hyp mice, vs vehicle wild-type): significantly higher compared to vehicle-treated wild-type littermates | 1,25(OH)2D3 serum levels ([1]; wild-type or Hyp mice, 24 h after last dosing): not significantly different among the treatment groups | renal Cyp24a1 expression [2]: almost complete loss of Cyp24a1 expression | renal Cyp27b1 expression [2]: increased Cyp27b1 levels | serum calcium levels [3]: increased | serum phosphate levels [3]: increased | serum calcium levels compared to vehicle-treated wild-type mice [4, 9]: indistinguishable from vehicle-treated wild-type mice | serum phosphate concentrations compared to wild-type mice [4, 9]: still significantly lower compared to serum levels of wild-type mice | 1,25(OH)2D3 serum levels ([4]; both wild-type and Hyp mice, single oral dose 50 mg/kg, 7 h post-dosing): strong increase | serum calcium levels [4, 10]: increased; also recorded: elevated | serum phosphate levels [4, 10]: increased; also recorded: elevated | calcium serum levels [4, 11]: persistent increase | phosphate serum levels [4, 11]: persistent increase | reduction of serum FGF23 levels ([5]; Hyp mice): approximately 50% | FGF23 expression in bone (mRNA) ([5]; both Hyp and wild-type mice): almost abolished | serum FGF23 levels ([5]; wild-type mice): undetectable | femoral cortex integrity (micro-CT) [6]: appeared intact | mineralization in the epiphyseal bone area adjacent to the growth plate [6]: enhanced mineralization | primary spongiosa in the metaphyseal sub-growth plate area [6]: formation of primary spongiosa | widening of femoral and tibial growth plate areas [6]: partially alleviate | growth plate organization (tibial sections, Goldner staining) ([6]; 50 mg/kg): striking re-organization of the growth plate area | femur length (radiography) ([6]; vs vehicle Hyp): significant elongation | tibia length (radiography) ([6]; vs vehicle Hyp): significant elongation | osteoid width ([6]; epiphyseal, metaphyseal and cortical bone compartments): strong reduction | relative cortical bone volume ([6]; femoral cortex, 50 mg/kg): increases from pathological values to indistinguishable with normal values; also recorded: indistinguishable from wild-type mice | average cortex thickness ([6]; femoral cortex, vs vehicle Hyp, 50 mg/kg): significantly increased compared to vehicle-treated Hyp mice | Osteoid surface/bone surface (OS/BS ratio) ([6]; histomorphometry): attenuation of the increased OS/BS ratio | columnar stacks of chondrocytes ([6]; tibial sections): re-formation | height of the proliferative zone ([6]; tibial sections): increased height
